This is an account of results in publication PMC5259778, “Candidate pheromone receptors of codling moth Cydia pomonella respond to pheromones and kairomones” (Scientific Reports, 2017).

The structures appear in SMILES notation.

One may read the EC50 as the concentration needed to bring the measured effect to its halfway point.

The target in this assay is CpomOrco + OR6a (Cydia pomonella, UniProt H9A5M1). Description: Calcium imaging of HEK293T cells expressing CpomOrco + OR6a. The class given is cell-based. On the procedure: HEK293T cells were grown in HEK cell media [Dulbecco’s modified Eagle’s medium containing 10% fetal bovine serum (MP Biomedicals, Solon, OH, USA), 2.0 mM L-glutamine, and 100 μg/mL Penicillin/Streptomycin (Invitrogen)] at 37 °C and 5% CO2. To test transient expression of CpomORs for calcium imaging or patch-clamp recording experiments, 35-mm petri dishes containing semi-confluent HEK293T cells were transiently transfected. To transfect cells with CpomOrco, we used 1.0 μg of pcDNA5/TO/CpomOrco DNA. In order to promote expression of the OR[51], we used double aliquots for pcDNA5/TO/CpomOR DNAs (2.0 μg), combined with 1.0 μg of pcDNA5/TO/CpomOrco for co-transfections (CpomOrco + ORs). To report expression for calcium imaging experiments, 1.0 μg of a separate plasmid DNA [pEBFP2-Nuc, a gift from Robert Campbell (Addgene plasmid # 14893[52])] carrying the coding sequence for a blue fluorescent protein (BFP) was used. In patch-clamp recordings, 1.0 μg of a separate plasmid DNA (pXOOM, Clontech) carrying the coding sequence for a green fluorescent protein (GFP) was used to report expression. In order to report candidate OR-expressing cells, expression of both fluorescent reporter genes was under the regulation of the same promoter for CpomOR genes (CMV). Transfection DNAs were dissolved in 100 μL sterile DMEM, mixed with 3.0 μL Calfectin (SignaGen, Rockville, MD, USA) following the recommended protocol. To estimate transfection efficiency, a parallel transfection was conducted using the positive control vector pcDNA5/TO/LACZ (Invitrogen) and staining with 0.1% XGal[53].
Chain of CpomOrco + OR6a (H9A5M1 entry or part of it): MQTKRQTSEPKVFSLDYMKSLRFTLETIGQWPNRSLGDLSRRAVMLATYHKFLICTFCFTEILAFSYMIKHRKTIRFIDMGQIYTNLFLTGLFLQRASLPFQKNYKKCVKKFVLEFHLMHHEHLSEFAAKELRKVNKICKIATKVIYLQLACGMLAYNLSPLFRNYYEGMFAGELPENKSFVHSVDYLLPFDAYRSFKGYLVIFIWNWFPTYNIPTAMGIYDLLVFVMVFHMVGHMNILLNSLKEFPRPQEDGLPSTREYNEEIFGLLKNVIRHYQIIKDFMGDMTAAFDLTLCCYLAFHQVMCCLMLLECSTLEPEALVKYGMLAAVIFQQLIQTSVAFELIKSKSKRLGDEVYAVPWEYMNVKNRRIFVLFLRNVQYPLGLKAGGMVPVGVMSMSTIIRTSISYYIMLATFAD
Chain of CpomOrco + OR6a (H9A5M2 entry or part of it, further chain): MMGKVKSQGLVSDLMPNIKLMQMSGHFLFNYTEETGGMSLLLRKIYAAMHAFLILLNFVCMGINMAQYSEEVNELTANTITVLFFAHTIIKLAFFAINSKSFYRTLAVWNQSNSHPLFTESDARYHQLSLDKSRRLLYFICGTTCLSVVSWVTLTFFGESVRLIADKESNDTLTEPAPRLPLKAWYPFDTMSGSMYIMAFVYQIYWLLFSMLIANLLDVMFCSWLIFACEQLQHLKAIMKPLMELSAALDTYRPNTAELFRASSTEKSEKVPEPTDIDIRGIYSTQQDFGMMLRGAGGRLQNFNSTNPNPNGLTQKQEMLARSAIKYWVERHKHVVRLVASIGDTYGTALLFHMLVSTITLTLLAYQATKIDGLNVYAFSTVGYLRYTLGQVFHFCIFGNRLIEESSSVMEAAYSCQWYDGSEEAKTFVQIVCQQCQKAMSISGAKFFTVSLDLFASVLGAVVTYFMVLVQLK
Transfections were conducted overnight. HEK cell media was replaced with 1.0 mL fresh media to incubate cells at 37 °C for up to 6 h, at which point part of the cell culture was spread in the middle of a 35-mm plate as individual cells or small clusters. After 12 h of incubation at 37 °C and 5% CO2, cells were rinsed at the sides with 2.0 mL fresh HEK media. Cells were allowed to recover for at least 1 h prior to calcium imaging.
To test activation of olfactory receptors, CpomOrco or CpomOrco + ORs HEK293T cells were incubated for 1 h at room temperature in 0.5–1.0 mL HEK cell Ringer (mM: 140 NaCl, 5.0 KCl, 1.0 CaCl2, 1.0 MgCl2, 10 HEPES, 10 Glucose, pH 7.5) containing the fluorescent calcium indicator Fluo-4AM (Invitrogen) at 5–15 μM prepared with 0.2–0.06% Pluronic F-127 (Invitrogen). After incubation, the buffer was removed and cells were rinsed with 4.0 mL fresh HEK Ca^++ Ringer (mM: 140 NaCl, 2.0 CaCl2, 10 HEPES, pH 7.5), and placed on the stage of an inverted microscope (Olympus IX-71, Olympus Corp., Tokyo, Japan) equipped with a cooled CCD camera (ORCA R2, Hamamatsu, Hamamatsu City, Japan). Cells were continuously superfused with Ca^++ Ringer using two gravity fed perfusion contours. The […] contour washing the cells (~250 μL/min) was switched rapidly to the stimulus contour using a multi-channel rapid solution changer (RSC-160, Bio-Logic, Claix, France) under the software control of Clampex 9 (Molecular Devices, Sunnyvale, CA, USA).
Fluorescence imaging was performed using Imaging Workbench 6 software (INDEC BioSystems, Santa Clara, CA, USA). Each cell was assigned a region of interest (ROI) and changes in fluorescence intensity within each ROI were measured and expressed as the fractional change in fluorescence intensity (dF) or in some cases as dF/F0 where F0 is the basal fluorescence level before agonist application. […] Continuous traces of multiple responses were compensated for slow drift of the baseline fluorescence when necessary. All recordings were performed at room temperature (22–25 °C).
HEK293T cells expressing CpomOrco + OR6a, CpomOrco + OR3 and CpomOrco + OR1 were stimulated with an array of compounds such as: potential insect pheromone compounds and plant volatile synergists active on the olfactory system and behaviour of the codling moth[1][25], non-host plant volatiles active on other tortricids, the methyl pear-ester[33] […]

In the case of `C/C=C/C=C/CCCCCCCOC(C)=O` [codlemone acetate, (E,E)-8,10-dodecadien-1-yl acetate], the “amplitude of the calcium response (mean of the maximum response ± SEM)” value is, setting by setting: (50 μM, n = 70) 12.04 ± 8.17 dF; (1500 μM, n = 68) 18.91 ± 10.31 dF. Moreover, the Emax (HEK-293T, vs 250 μM VUAA3, read-out: amplitude at saturating concentrations relative to the positive control amplitude) is about 27%. For the setting “calcium response normalized to 250 μM VUAA3”, the EC50 is 51.8 ± 13.2 µM.
Take `CCn1c(SCC(=O)Nc2ccc(C(C)C)cc2)nnc1-c1ccncc1` [VUAA3, acetamide,2-[[4-ethyl-5-(4-pyridinyl)-4H-1,2,4-triazol-3-yl]thio]-N-[4-(1-methylethyl)phenyl]-]: the “amplitude of the calcium response (mean of the maximum response ± SEM)” value turned out to be 37.96 ± 20.98 dF (100 μM, n = 70) and 69.71 ± 27.29 dF (250 μM positive control, n = 68).
As to `C/C=C/C=C/CCCCCCCO` [codlemone, (E,E)-8,10-dodecadien-1-ol], the “amplitude of the calcium response (mean of the maximum response ± SEM)” value runs as follows: (50 μM, n = 70) 0.38 ± 1.84 dF; (1500 μM, n = 68) 5.7 ± 3.64 dF.
